Experiments:
Motilin receptor = Motilin receptor (Homo sapiens, UniProt O43193)
[1] = target: T1, Muscarinic acetylcholine receptor M2 (Homo sapiens, UniProt P08172)
T1 sequence (P08172 whole entry): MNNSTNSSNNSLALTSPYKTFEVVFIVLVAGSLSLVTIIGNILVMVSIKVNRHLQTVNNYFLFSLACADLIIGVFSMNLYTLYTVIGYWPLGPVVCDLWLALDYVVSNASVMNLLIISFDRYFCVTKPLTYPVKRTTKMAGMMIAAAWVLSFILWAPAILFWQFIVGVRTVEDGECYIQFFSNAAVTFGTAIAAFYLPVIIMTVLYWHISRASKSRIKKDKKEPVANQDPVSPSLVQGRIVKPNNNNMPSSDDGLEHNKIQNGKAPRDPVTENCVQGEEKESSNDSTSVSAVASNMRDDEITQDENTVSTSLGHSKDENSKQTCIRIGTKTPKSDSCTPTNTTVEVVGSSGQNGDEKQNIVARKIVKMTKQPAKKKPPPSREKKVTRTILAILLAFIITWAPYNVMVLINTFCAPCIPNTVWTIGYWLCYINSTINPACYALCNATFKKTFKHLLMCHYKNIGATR

[2] = target: T2, Cholecystokinin receptor type A (Homo sapiens, UniProt P32238)
T2 sequence (P32238 whole entry): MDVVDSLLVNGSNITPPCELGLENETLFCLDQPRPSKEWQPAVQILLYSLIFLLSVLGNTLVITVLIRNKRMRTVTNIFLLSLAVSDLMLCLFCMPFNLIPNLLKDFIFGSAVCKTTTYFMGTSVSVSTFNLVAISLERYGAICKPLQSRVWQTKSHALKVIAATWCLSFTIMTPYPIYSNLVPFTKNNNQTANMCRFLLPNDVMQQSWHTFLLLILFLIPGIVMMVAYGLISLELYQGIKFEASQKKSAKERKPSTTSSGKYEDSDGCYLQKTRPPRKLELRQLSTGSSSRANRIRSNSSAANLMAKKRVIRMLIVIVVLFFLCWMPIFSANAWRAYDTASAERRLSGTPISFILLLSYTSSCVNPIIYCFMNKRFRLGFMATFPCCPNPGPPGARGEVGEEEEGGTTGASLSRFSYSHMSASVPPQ

[3] = target: T3, 5-hydroxytryptamine receptor 1A (Homo sapiens, UniProt P08908)
T3 sequence (P08908 whole entry): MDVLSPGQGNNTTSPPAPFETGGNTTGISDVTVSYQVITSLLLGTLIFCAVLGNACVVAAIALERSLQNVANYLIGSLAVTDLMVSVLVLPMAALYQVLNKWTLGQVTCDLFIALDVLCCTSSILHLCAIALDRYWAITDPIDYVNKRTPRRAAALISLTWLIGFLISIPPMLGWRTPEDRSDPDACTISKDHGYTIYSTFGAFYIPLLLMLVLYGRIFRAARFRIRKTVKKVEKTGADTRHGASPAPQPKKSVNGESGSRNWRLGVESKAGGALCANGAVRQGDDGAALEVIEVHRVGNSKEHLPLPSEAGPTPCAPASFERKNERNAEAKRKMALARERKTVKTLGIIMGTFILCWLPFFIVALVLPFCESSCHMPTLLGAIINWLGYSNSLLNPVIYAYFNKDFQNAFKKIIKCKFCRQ

Histamine H3 receptor = Histamine H3 receptor (Homo sapiens, UniProt Q9Y5N1)
Histamine H3 receptor, sequence (Q9Y5N1 whole entry): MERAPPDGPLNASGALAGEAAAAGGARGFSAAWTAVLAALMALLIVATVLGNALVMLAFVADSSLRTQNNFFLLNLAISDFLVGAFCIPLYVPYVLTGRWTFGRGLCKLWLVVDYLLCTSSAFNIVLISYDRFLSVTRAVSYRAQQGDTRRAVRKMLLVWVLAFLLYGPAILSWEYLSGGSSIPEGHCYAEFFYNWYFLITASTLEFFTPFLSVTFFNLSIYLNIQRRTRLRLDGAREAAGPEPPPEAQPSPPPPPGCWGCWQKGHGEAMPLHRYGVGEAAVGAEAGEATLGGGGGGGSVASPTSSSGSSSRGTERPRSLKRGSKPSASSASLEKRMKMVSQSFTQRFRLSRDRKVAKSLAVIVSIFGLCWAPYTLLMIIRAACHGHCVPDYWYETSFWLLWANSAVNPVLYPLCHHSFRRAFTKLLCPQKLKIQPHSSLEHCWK

[4] = target: T3, 5-hydroxytryptamine receptor 1A; assay type: functional, cell-based
[5] = target: T4, Alpha-1A adrenergic receptor (Homo sapiens, UniProt P35348); assay type: functional, cell-based
T4 sequence (P35348 whole entry): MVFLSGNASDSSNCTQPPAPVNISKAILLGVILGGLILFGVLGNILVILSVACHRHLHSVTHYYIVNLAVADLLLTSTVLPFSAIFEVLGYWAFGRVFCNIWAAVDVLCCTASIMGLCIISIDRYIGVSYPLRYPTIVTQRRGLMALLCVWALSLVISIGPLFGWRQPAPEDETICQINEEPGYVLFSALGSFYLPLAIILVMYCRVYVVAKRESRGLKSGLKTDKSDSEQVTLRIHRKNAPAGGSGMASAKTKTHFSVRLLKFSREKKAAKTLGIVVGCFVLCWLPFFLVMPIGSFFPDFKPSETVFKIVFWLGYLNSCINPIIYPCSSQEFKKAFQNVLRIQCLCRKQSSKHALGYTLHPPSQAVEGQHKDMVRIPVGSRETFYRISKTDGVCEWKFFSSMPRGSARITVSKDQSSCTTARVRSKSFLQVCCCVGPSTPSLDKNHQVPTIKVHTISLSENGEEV

[6] = target: T1, Muscarinic acetylcholine receptor M2; assay type: functional, cell-based
[7] = target: 5-hydroxytryptamine receptor 2B (Homo sapiens, UniProt P41595); assay type: functional, cell-based
5-hydroxytryptamine receptor 2B, sequence (P41595 whole entry): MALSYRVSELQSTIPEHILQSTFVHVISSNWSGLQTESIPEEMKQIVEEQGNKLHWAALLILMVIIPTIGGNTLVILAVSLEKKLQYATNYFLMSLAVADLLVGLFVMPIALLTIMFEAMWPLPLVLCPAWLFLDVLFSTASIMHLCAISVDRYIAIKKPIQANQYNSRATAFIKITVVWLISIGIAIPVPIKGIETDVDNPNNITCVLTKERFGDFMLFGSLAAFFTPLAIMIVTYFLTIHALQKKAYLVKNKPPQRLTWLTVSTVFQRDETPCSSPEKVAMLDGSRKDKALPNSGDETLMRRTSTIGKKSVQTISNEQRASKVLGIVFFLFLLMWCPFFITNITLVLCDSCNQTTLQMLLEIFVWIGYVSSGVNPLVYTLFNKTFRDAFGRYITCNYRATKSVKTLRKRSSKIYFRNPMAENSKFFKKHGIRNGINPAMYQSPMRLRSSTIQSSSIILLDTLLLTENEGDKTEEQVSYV

[8] = target: Beta-2 adrenergic receptor (Homo sapiens, UniProt P07550)
Beta-2 adrenergic receptor, sequence (P07550 whole entry): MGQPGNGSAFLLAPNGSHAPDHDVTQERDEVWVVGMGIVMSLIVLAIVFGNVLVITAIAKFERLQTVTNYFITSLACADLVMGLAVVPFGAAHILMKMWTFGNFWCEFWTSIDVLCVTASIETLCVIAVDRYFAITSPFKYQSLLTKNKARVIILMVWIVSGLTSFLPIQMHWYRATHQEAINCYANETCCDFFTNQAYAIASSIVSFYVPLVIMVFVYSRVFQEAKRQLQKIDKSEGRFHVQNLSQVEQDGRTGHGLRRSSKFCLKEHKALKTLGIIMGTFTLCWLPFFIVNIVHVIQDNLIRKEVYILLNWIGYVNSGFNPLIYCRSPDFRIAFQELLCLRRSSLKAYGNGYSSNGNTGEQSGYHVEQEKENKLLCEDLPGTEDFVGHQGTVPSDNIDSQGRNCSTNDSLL

Adenosine receptor A3 = target: T5, Adenosine receptor A3 (Homo sapiens, UniProt P0DMS8)
T5 sequence (P0DMS8 whole entry): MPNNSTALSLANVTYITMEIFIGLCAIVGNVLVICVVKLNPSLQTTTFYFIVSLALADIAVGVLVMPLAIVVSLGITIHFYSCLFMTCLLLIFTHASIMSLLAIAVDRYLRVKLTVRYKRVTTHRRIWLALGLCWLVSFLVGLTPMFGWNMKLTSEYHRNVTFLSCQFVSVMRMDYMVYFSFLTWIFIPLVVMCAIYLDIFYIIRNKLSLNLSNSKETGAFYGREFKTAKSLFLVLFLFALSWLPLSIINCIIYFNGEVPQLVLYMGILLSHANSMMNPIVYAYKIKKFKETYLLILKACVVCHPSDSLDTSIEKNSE
Also: assay procedure not described here.

Motilin receptor, sequence (O43193 whole entry): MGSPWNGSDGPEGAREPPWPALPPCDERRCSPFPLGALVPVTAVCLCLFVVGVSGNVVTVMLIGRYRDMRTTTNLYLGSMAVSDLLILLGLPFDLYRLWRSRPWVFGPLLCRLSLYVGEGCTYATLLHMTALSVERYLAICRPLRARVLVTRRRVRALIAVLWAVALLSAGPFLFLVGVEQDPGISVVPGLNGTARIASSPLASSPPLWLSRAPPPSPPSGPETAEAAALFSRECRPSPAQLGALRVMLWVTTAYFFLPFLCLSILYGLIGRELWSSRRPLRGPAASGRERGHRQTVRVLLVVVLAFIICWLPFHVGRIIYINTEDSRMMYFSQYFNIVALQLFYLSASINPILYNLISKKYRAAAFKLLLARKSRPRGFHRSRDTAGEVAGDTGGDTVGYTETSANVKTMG

Row | Compound | AC50 (Motilin receptor) [µM] | AC50 [1] [µM] | AC50 [2] [µM] | AC50 [3] [µM] | AC50 (Histamine H3 receptor) [µM] | AC50 [4] [µM] | AC50 [5] [µM] | AC50 [6] [µM] | AC50 [7] [µM] | AC50 [8] [µM] | AC50 (Adenosine receptor A3) [µM]
1 | Nc1nc(N)c2nc(-c3ccccc3)c(N)nc2n1 | > 30 | > 30 | > 30 | > 30 | > 30 | > 30 | > 30 | > 30 | > 30 | > 30 | > 30
2 | C[C@H]1O[C@H](O[C@H]2[C@H](O)[C@@H](O)[C@@H](O[C@H]3[C@H](O)[C@@H](O)C(O)O[C@@H]3CO)O[C@@H]2CO)[C@H](O)[C@@H](O)[C@@H]1N[C@H]1C=C(CO)[C@@H](O)[C@H](O)[C@H]1O (stereo partly drawn) [ACARBOSE] | > 30 | > 30 | > 30 | > 30 | > 30 | > 30 | > 30 | > 10 | > 30 | > 30 | > 30
3 | Oc1ncnc2[nH]ncc12 [ALLOPURINOL] | > 10 | > 30 | > 30 | > 30 | > 30 | > 10 | > 30 | > 10 | > 10 | > 10 | > 30
4 | Cc1cc(O)cc(C)c1Cl [CHLOROXYLENOL] | – | > 30 | – | > 30 | > 30 | – | – | – | – | – | > 30
5 | CN(C)CCCN1c2ccccc2CCc2ccc(Cl)cc21 [CLOMIPRAMINE] | – | 0.451 | – | 5.33 | > 30 | > 30 | 0.0154 | > 10 | > 10 | – | –
6 | CCC(=O)O[C@H]1[C@H](O[C@@H]2[C@@H](C)[C@H](O[C@H]3C[C@@](C)(OC)[C@@H](O)[C@H](C)O3)[C@@H](C)C(=O)O[C@H](CC)[C@@](C)(O)[C@H](O)[C@@H](C)C(=O)[C@H](C)C[C@@]2(C)O)O[C@H](C)C[C@@H]1N(C)C [ERYTHROMYCIN PROPIONATE] | – | > 30 | – | 15.1 | > 30 | – | – | – | – | – | –
7 | C#C[C@]1(O)CC[C@H]2[C@@H]3CCc4cc(O)ccc4[C@H]3CC[C@@]21C [ETHINYL ESTRADIOL] | > 10 | > 30 | > 30 | > 30 | > 30 | 5.7 | > 10 | > 10 | > 10 | > 10 | –
8 | Cc1c(-c2ccccc2)oc2c(C(=O)OCCN3CCCCC3)cccc2c1=O [FLAVOXATE] | – | 3.39 | – | 3.11 | 24.6 | – | 6.29 | – | – | – | 5.29
9 | CC1(C)O[C@@H]2C[C@H]3[C@@H]4C[C@H](F)C5=CC(=O)CC[C@]5(C)[C@H]4[C@@H](O)C[C@]3(C)[C@]2(C(=O)CO)O1 [FLURANDRENOLIDE] | – | > 30 | – | > 30 | > 30 | – | > 30 | – | – | – | > 30
10 | CC(C)C(=O)Nc1ccc([N+](=O)[O-])c(C(F)(F)F)c1 [FLUTAMIDE] | > 30 | > 30 | > 30 | > 30 | > 30 | > 10 | 9.04 | > 10 | > 10 | > 10 | 20.3
11 | C#C[C@]1(O)CC[C@H]2[C@@H]3CCC4=CC(=O)CC[C@@H]4[C@H]3CC[C@@]21CC [LEVONORGESTREL] | – | > 30 | – | > 30 | > 30 | – | > 30 | – | – | – | > 30
12 | OC[C@@H](O)[C@@H](O)[C@H](O)[C@H](O)CO [MANNITOL] | – | > 30 | – | > 30 | > 30 | – | > 30 | – | – | – | > 30
13 | CN1CCCC(CN2c3ccccc3Sc3ccccc32)C1 (stereo not drawn) [MEPAZINE] | – | 0.347 | – | > 30 | 22.3 | – | 0.391 | – | – | – | > 30
14 | Sc1ncnc2nc[nH]c12 [MERCAPTOPURINE ANHYDROUS] | – | > 30 | – | > 30 | > 30 | – | > 30 | – | – | – | > 30
15 | C[N+]1(C)[C@@H]2C[C@@H](OC(=O)[C@H](CO)c3ccccc3)C[C@H]1[C@@H]1O[C@@H]12 [METHSCOPOLAMINE] | – | – | – | > 30 | > 30 | – | > 30 | – | – | – | > 30
16 | O=C1CC[C@@]2(O)[C@H]3Cc4ccc(O)c5c4[C@@]2(CCN3CC2CC2)[C@H]1O5 [NALTREXONE] | – | > 30 | – | > 30 | > 30 | – | > 30 | – | – | – | > 30
17 | CCc1ccc(CCOc2ccc(CC3SC(=O)NC3=O)cc2)nc1 (stereo not drawn) [PIOGLITAZONE] | > 10 | > 30 | > 30 | > 30 | > 3 | > 10 | > 10 | > 10 | > 10 | > 10 | > 30
18 | CC(O)CO (stereo not drawn) [PROPYLENE GLYCOL] | – | > 30 | – | > 30 | > 30 | – | > 30 | – | – | – | > 30
19 | NC(=O)c1cnccn1 [PYRAZINAMIDE] | > 30 | > 30 | > 30 | > 30 | > 30 | > 30 | > 30 | > 30 | > 30 | > 30 | > 30
20 | CS(=O)(=O)c1ccc([C@@H](O)[C@@H](CO)NC(=O)C(Cl)Cl)cc1 [THIAMPHENICOL] | > 30 | > 30 | > 30 | > 30 | > 30 | > 30 | > 30 | > 30 | > 30 | > 30 | > 30
21 | NC[C@H]1CC[C@H](C(=O)O)CC1 [TRANEXAMIC ACID] | > 10 | – | > 10 | – | – | > 10 | – | > 10 | > 10 | > 10 | –
22 | CCCS(=O)(=O)Nc1ccc(F)c(C(=O)c2c[nH]c3ncc(-c4ccc(Cl)cc4)cc23)c1F [VEMURAFENIB] | > 30 | – | > 30 | – | – | > 30 | – | > 30 | > 30 | > 30 | –
23 | O=C(CCCCCCC(=O)Nc1ccccc1)NO [VORINOSTAT] | > 30 | – | > 30 | – | – | > 30 | – | > 30 | > 30 | > 10 | –

From ChEMBL document CHEMBL5291721, “A preclinical secondary pharmacology resource illuminates target-adverse drug reaction associations of marketed drugs” (Nat Commun, 2023)
